Test results as given in patent US11773071B2, “Benzothiazepine compounds and their use as bile acid modulators” (Albireo AB, priority 2019, dated 2023).

System: Caco-2 cells
Test: Bidirectional permeability assay (Caco-2 cells)
Format: in vitro ADME
Details: absorptive direction (A2B); 10 μM in FaSSIF buffer; 120 minutes
Experimental: Bidirectional Permeability Assay (Caco-2 Cells)
Caco-2 cells (Evotec) were seeded at a density of 70,000 cells/well in Millicell® 24-well cell culture insert plates and maintained in an incubator (37° C., 5% CO2, 95% RH) for 21 days with media change on alternate days.
Stock solutions (10 mM) of the test compounds, atenolol (low permeability marker), propranolol (high permeability marker) and digoxin (substrate for P-gp transport pathway) were prepared in dimethylsulfoxide (DMSO). An intermediate stock solution (1 mM) was prepared by diluting 10 μL of 10 mM master stock solution with 90 μL of neat DMSO. A working stock solution (10 μM) was prepared by diluting 50 μL of 1 mM with 4950 μL of FaSSIF buffer. Post addition of compounds to the FaSSIF, samples were subjected to sonication for 2 hours, and centrifuged at 4000 RPM for 30 minutes at 37° C. The 4 mL of resultant supernatant was directly used in the assay. The final DMSO concentration in the transport experiments was 1%.
On the day of assay, Caco-2 monolayers were washed twice with transport buffer (HBSS, pH 7.4) and pre-incubated for 30 min (37° C., 5% CO2, 95% RH) in an incubator. The electrical resistance of the monolayers was measured with a Millicell®—ERS system. Monolayers with trans-epithelial electrical resistance (TEER) values greater than 350 ohm·cm^2 were selected for the assay.
The assay was conducted in absorptive direction (A2B) and secretory (B2A) directions. Transport experiments were initiated by addition of transport assay buffer (FaSSIF buffer prepared in HBSS) consisting of compounds to the donor compartment (apical chamber A-B; basolateral chamber B-A) in duplicate (n=2) wells. Drug free HBSS buffer (pH 7.4) containing 1% bovine serum albumin (BSA) was introduced to the receiver (A-B-basolateral; B-A-Apical) compartments. The volumes of apical and basolateral compartments were 0.4 and 0.8 mL, respectively. After adding dosing solution, plates were incubated in an incubator for 120 minutes at 37° C. After 120 minutes, donor and receiver samples were collected and matrix matched (1:1, 30 μL study sample+30 μL blank buffer) with the opposite buffer. Dosing samples matrix matched (1:1, 30 μL study sample+30 μL blank buffer) with the opposite buffer. Samples were processed by adding acetonitrile containing internal standard (60 μL study sample+200 μL acetonitrile containing internal standard—Tolbutamide, 500 ng/mL). Samples were vortexed and centrifuged at 4000 rpm for 10 minutes. The obtained supernatant (100 μL) was diluted with 100 μL of water and transferred to fresh 96 well plates. The concentration of compounds in the samples was analyzed by liquid chromatography tandem mass spectrometry (LC-MS/MS) method using discovery grade bio-analytical method, as applicable.
The mean apparent permeability (Papp,×10^−6 cm/sec) of the test compounds, atenolol, propranolol and digoxin were calculated as follows:
[formula] where dq/dt=rate of transport (rate of transport of compound in the receiver compartment), C0=initial concentration in the donor compartment, A=surface area of the effective filter membrane.

Structure (SMILES): CCCCC1(CCCC)CN(c2ccccc2)c2cc(SC)c(OCC(O)C(=O)O)cc2S(=O)(=O)C1 (single isomer, unassigned) [Example 11, 3-((3,3-dibutyl-7-(methylthio)-1,1-dioxido-5-phenyl-2,3,4,5-tetrahydro-1,5-benzothiazepin-8-yl)oxy)-2-hydroxypropanoic acid]
- Permeability (Caco-2) Papp A2B: 15 nm/s
